Measurements: patent publication US12187705B2, “Heteroaryl-triazole and heteroaryl-tetrazole compounds as pesticides” (Bayer Aktiengesellschaft, priority 2018, dated 2025)

Key:
Assay type in all cases: in vivo
[1] = tested on: Nezara viridula; test: Nezara viridula spray test; details: in Hordeum vulgare, 96 h
In short: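 Barley plants infested with stink bug larvae were sprayed with compound diluted in water containing 1000 ppm emulsifier. Mortality (%) was scored after 4 days, 100% meaning all bugs killed.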

[2] = tested on: Nilaparvata lugens; test: Nilaparvata lugens spray test; details: Nilaparvata lugens, in Oryza sativa, 96 h
In short: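 Rice plants sprayed with compound diluted in water containing 1000 ppm emulsifier, then infested with brown planthopper. Mortality (%) scored after 4 days, 100% meaning all insects killed.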

[3] = tested on: Phaedon cochleariae; test: Phaedon cochleariae spray test; details: foliar, 168 h, Chinese cabbage leaf disks, after 7 days
In short: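 Chinese cabbage leaf disks sprayed with compound diluted in water containing 1000 ppm emulsifier, then infested with mustard beetle larvae once dry. Mortality in % scored after 7 days (100% = all larvae killed, 0% = none).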

[4] = tested on: Myzus persicae; test: Myzus persicae oral test; details: 120 h
In short: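 Feeding test: compound diluted in water was combined with IPL41 insect medium (33%+15% sugar) under a parafilm seal. A mixed population of green peach aphids fed through the membrane. Mortality (%) was scored after 5 days.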

[5] = tested on: Spodoptera frugiperda; test: Spodoptera frugiperda spray test; details: in Zea mays, 168 h
In short: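 Maize leaf sections were sprayed with compound formulated in solvent and diluted in water containing 1000 ppm emulsifier, then infested with fall armyworm larvae after drying. Percent mortality was scored after 7 days (100% = all caterpillars dead, 0% = none).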

[6] = tested on: Tetranychus urticae; test: Tetranychus urticae spray test OP-resistant; details: Tetranychus urticae, foliar, 144 h, French bean leaf disks, after 6 days
Description: Tetranychus urticae—Spray Test OP-Resistant
To produce a suitable preparation of active compound, 1 part by weight of active compound is mixed with the stated amount of solvents and is diluted with water, containing an emulsifier concentration of 1000 ppm, to the desired concentration. Further test concentrations are prepared by dilution with emulsifier containing water.
French bean (Phaseolus vulgaris) leaf disks infected with all instars of the two spotted spidermite (Tetranychus urticae), are sprayed with a preparation of the active ingredient of the desired concentration.
After 6 days mortality in % is determined. 100% means all spider mites have been killed and 0% means none of the spider mites have been killed.

[7] = tested on: Ctenocephalides felis; test: Ctenocephalides felis in-vitro contact test adult cat flea; details: Ctenocephalides felis; 5 μg/cm^2 (=500 g/ha), after 48 hours; read-out: efficacy (fleas dead or moribund)
In short: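 Compound in acetone was coated on glass tube walls, giving 5 μg/cm^2 at 900 ppm. 5-10 adult cat fleas were held at room temperature for 48 h, then heat-challenged at 45-50° C. Fleas immotile or uncoordinated were scored dead/moribund, expressed as % efficacy.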

[8] = tested on: Diabrotica balteata; test: Diabrotica balteata spray test; details: Diabrotica balteata, 168 h; 160 μg/well, wheat seeds, after 7 days; read-out: efficacy (seedlings grown)
In short: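 Wheat seeds germinated 1 day on agar were sprayed with compound diluted in water with 1000 ppm emulsifier, then infested with 10-20 Diabrotica balteata larvae. Efficacy in % scored after 7 days: 100% = seedlings grown as untreated, uninfected control; 0% = no seedlings grown.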

[9] = tested on: Ctenocephalides felis; test: Ctenocephalides felis oral test; details: Ctenocephalides felis, in Bos taurus, po, 48 h
In short: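 About 20 adult unfed fleas fed through parafilm on cattle blood containing compound (DMSO concentrate diluted in blood); blood held at 37° C., fleas at room temperature. Mortality in % scored after 2 days (100% = all killed).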

[10] = tested on: Boophilus microplus; test: Boophilus microplus injection test; details: Rhipicephalus microplus, 168 h, 20 μg/animal, egg deposition after 7 days, read-out: efficacy (infertile eggs)
In short: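 Engorged adult female ticks, five per dose, received 1 μl of compound in DMSO injected into the abdomen and were kept in a climate chamber. Fertile egg deposition was checked after 7 days, with eggs of unclear fertility held until hatching at about 42 days. Efficacy 100% = all eggs infertile, 0% = all fertile.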

[11] = tested on: Rhipicephalus sanguineus; test: Rhipicephalus sanguineus in-vitro contact test with adult brown dog ticks; details: Rhipicephalus sanguineus; 5 μg/cm^2 (=500 g/ha), after 48 hours; read-out: efficacy (ticks dead or moribund)
Description: Rhipicephalus sanguineus—In-Vitro Contact Test with Adult Brown Dog Ticks
9 mg compound is solved in 1 ml acetone and diluted with acetone to the desired concentration. 250 μl of the test solution is filled in 25 ml glass test tubes and homogeneously distributed on the inner walls by rotation and tilting on a shaking device (2 h at 30 rpm). With a compound concentration of 900 ppm, an inner surface of 44.7 cm^2 and a homogeneous distribution, a dose of 5 μg/cm^2 is achieved.
After the solvent has evaporated, each test tube is filled with 5-10 adult brown dog ticks (Rhipicephalus sanguineus), closed with a perforated lid and incubated in a lying position at room temperature and relative humidity. After 48 hours efficacy is determined. The ticks are patted on the ground of the tubes and are incubated on a heating plate at 45-50° C. for at most 5 minutes. Immotile or uncoordinated moving ticks, which are not able to escape the heat by climbing upwards, are marked as dead or moribund.
An efficacy of 100% means all ticks are dead or moribund; 0% means no ticks are dead or moribund.

Molecule `CC(c1ncnn1-c1ncccn1)N(CC1CC1)C(=O)c1cccc(S(=O)(=O)C(F)(F)F)c1` (centres unmarked) [Example I-005, N-(cyclopropylmethyl)-N-{1-[1-(pyrimidin-2-yl)-1H-1,2,4-triazol-5-yl]ethyl}-3-[(trifluoromethyl)sulfonyl]benzamide] has a mortality at 500 g/ha [1] of 100%, a mortality at 500 g/ha [2] of 100% and a mortality at 500 g/ha [3] of 100%. The mortality at 4 ppm [4] was 90%, the mortality at 20 ppm [4] was 100% and the mortality at 500 g/ha [5] was 100%. For the same molecule, the mortality at 500 g/ha [6] was 80%, the pest or weed control at 5 µg/cm2, 5 µg/cm2 [7] was 90% and the pest or weed control at 160 µg/disc, 160 µg/well [8] was 100%.

Molecule `CC(c1ncnn1-c1ncccn1)N(CC1CC1)C(=O)c1cncc(S(=O)(=O)C(F)(F)F)c1` (centres unmarked) [Example I-006] has a mortality at 100 ppm [9] of 100%, a mortality at 500 g/ha [1] of 100% and a mortality at 500 g/ha [2] of 100%. It also gave a mortality at 500 g/ha [3] of 100%, a mortality at 4 ppm [4] of 90% and a mortality at 20 ppm [4] of 100%. It also gave a pest or weed control at 0.02 mg [10] of 100%, a pest or weed control at 5 µg/cm2, 5 µg/cm2 [11] of 80% and a mortality at 500 g/ha [6] of 95%. It also gave a pest or weed control at 5 µg/cm2, 5 µg/cm2 [7] of 90% and a pest or weed control at 160 µg/disc, 160 µg/well [8] of 100%.
